Experiment: Human HepG2 cell viability assay in 384 well format
Type: toxicity, cell-based
Set-up: dose 125 nL, time 70.5 hour; cytotoxicity at 70.5 h: concentration not given beside the values
Details: HepG2 cells, read-out: Inhibition

| SMILES | cytotoxicity at 70.5 h [%] |
| --- | --- |
| CCC1=NN2C(=N)/C(=C\c3cccn3-c3ccc(Br)cc3)C(=O)N=C2S1 | 3.19 |
| CN(C)CCN(C)C[C@H]1CN2CC[C@H]1C[C@@H]2CNC(=O)Nc1ccsc1 | -2.68 |
| Cc1ccc(CNC2(Cc3cc(-c4ccccn4)on3)COC2)o1 | -1.75 |
| O=C(c1ccno1)N1C[C@@H](F)[C@@H](OCc2nc3ccccc3o2)C1 | 0.816 |
| Cc1cccc(-c2noc([C@@H]3C[C@@H](O)CN3C3CCOCC3)n2)c1 | -3.79 |
| CN1C(=O)CO[C@H](c2ccc(NC(=O)c3cccnc3)cc2)[C@H]1CO | -2.53 |
| CO[C@H]1COCCN(Cc2c[nH]c3ccccc23)C1 | -4 |
| O=C(C1CC1)N1CC[C@H](c2nnc(-c3ccccc3F)o2)C1 | -7.55 |
| O=C(NCCC1=CCCCC1)c1[nH]nc2c1CCCC2 | 11.2 |
| CN(C)CCCNCC1CCOC(C)(C)C1 (stereo not drawn) | -3.4 |
| CCCNC(=O)COc1cccc(-c2nc(C(C)C)no2)c1 | 0.882 |
| CC(C)c1noc(-c2cccc(OCC(N)=O)c2)n1 | -5.07 |
| COCCCNc1c(-c2ccccc2)c(=O)c1=O | -8.63 |
| CCCN(CCC)CCNc1c(-c2ccccc2)c(=O)c1=O | 1.06 |
| COCCNc1c(-c2ccc(Cl)cc2)c(=O)c1=O | -7.26 |
| Cc1nnc(NC(=O)CSCc2cc(=O)n3ccccc3n2)s1 | -4.73 |
| Cc1ccn2c(=O)cc(CSCC(=O)Nc3nnc(C(C)C)s3)nc2c1 | 23 |
| CCC(C)NC(=O)CCn1ccc(C)n1 (stereo not drawn) | -6.22 |
| Cc1ccn(CCC(=O)NCCc2ccco2)n1 | -3.53 |
| Cc1nc(N2CCN(C)CC2)ncc1C(=O)N1CCCCCC1 | -1.12 |
| CCN(CC)S(=O)(=O)c1ccc2c(c1)N(Cc1ccccn1)C(=O)CS2 | -4.62 |
| CCN(CC)S(=O)(=O)c1ccc2c(c1)N(Cc1cccnc1)C(=O)CS2 | -4.53 |

| SMILES | cytotoxicity at 70.5 h [%] |
| --- | --- |
| CCOC(=O)Cc1csc(NC(=O)c2ccc(=O)[nH]n2)n1 | -5.3 |
| Cc1ccc(NC(=O)c2ccc(=O)n(CC(=O)Nc3nccs3)n2)cc1 | 23.1 |
| CCOCc1nc(N2CCOCC2)sc1C(=O)NCc1ccco1 | -6.85 |
| CCOCCCNC(=O)C1(C)CCC(=O)N1Cc1ccccc1F (stereo not drawn) | 0.95 |
| O=C1N(Cc2ccncc2)CCC12CCCNC2 (stereo not drawn) | -4.76 |
| CC(C)NC(=O)N1CC[C@@H]2[C@@H]1CC(=O)N2Cc1cccnc1 | -13.6 |
| O=C(C1CCOC1)N1CCC2(CCNCC2)C1 (stereo not drawn) | 27.5 |
| CCOC(=O)CN1CCC2(CCCN(CCOc3ccccc3)C2)C1 (stereo not drawn) | -16 |
| Cc1ccccc1C(=O)N1CCC2(CCC(C(=O)NCC3CC3)O2)CC1 (stereo not drawn) | -18.9 |
| CN1C(=O)CCCC12CCCN(C(=O)c1cc(F)cc(F)c1)C2 (stereo not drawn) | -9.55 |
| CN1C(=O)CCCC12CCCN(C(=O)c1ccoc1)C2 (stereo not drawn) | -10.6 |
| O=C(NCC1CC1)C1CCC2(CCN(C(=O)c3cnccn3)CC2)O1 (stereo not drawn) | 9.2 |
| CC(C)N1[C@@H](C(=O)NCC2CC2)C[C@@H]2CN(Cc3ccco3)C[C@@H]21 | -13.6 |
| CC[C@H]1N(Cc2ccc(OC)cc2)CCC[C@]12CCC(=O)N2C | -13 |
| O=C(NCC1CC1)C1CCC2(CCN(C(=O)c3ccco3)CC2)O1 (stereo not drawn) | -15.5 |
| CC[C@H]1N(Cc2ccco2)CCC[C@]12CCC(=O)N2C | -15.5 |
| C[C@@H]1CN(C(=O)c2ccccc2F)C[C@]12CCN(CCN(C)C)C2=O | -13.1 |
| Cc1cc(C)cc(C(=O)N2CCCC3(CCCC(=O)N3C)C2)c1 (stereo not drawn) | -14.4 |
| O=C(CC1CC1)N1CCCC2(CCC(=O)N2CC2CC2)CC1 (stereo not drawn) | -8.2 |
| Cc1noc(C)c1CN1CCCC2(CCN(C(=O)N3CCOCC3)C2)C1 (stereo not drawn) | -8.84 |
| Cc1noc(C)c1CN1CCCC2(CCN(C(=O)C3CC3)C2)C1 (stereo not drawn) | -11.8 |
| Cc1nc(CN2CCC3(CC2)NC(=O)CC3c2cccnc2)cs1 (stereo not drawn) | -8.17 |

| SMILES | cytotoxicity at 70.5 h [%] |
| --- | --- |
| O=C1COC2(CCN(Cc3ccco3)CC2)CN1Cc1cccnc1 | -7.11 |
| CCC(=O)N1CC[C@H](O)[C@@H]1Cc1ccccc1 | -9.02 |
| O=C([C@H]1CCCO1)N1CC[C@@H](O)[C@@H]1Cc1ccccc1 | -8.36 |
| COCCN1C(=O)CCC12CCN(C(=O)CNC(C)=O)CC2 | -8.47 |
| CCN1CC2(CCCCN2C(=O)c2ccsc2)CC1=O (stereo not drawn) | 2.62 |
| O=C1CC2(CCCCN2C(=O)c2ccccc2)CN1CC1CC1 (stereo not drawn) | 4.75 |
| CC(=O)N1CCc2nc(N3CCCC3)nc(C)c2C1 | -0.643 |
| Cc1nc(N2CCOCC2)nc2c1CN(C(=O)C(C)C)CC2 | 4.55 |
| Cc1nc(N2CCCC2)nc2c1CCN(C(=O)N1CCCC1)CC2 | -8.89 |
| Cc1nc(N2CCCC2)nc2c1CN(C(=O)NC(C)C)CC2 | -3.45 |
| CN(CC1CC1)c1ccc2ccc(C(=O)NCCc3ccccc3)cn12 | -12.6 |
| c1cc(-c2ccc3c(c2)CCC32CCNCC2)ccn1 | 26.1 |
| COCC(=O)N1CCc2nc(C(=O)N(C)C)sc2CC1 | 27.3 |
| Cc1occc1C(=O)N1CCCC2(CCN(c3ccccc3)C2=O)C1 (stereo not drawn) | 12.9 |
| CC(=O)N1CC2(CCNCC2)c2cc(Cl)ccc21 | -6.66 |
| CC(=O)N1[C@H](CN(C)C)C[C@@H]2CN(C(=O)c3occc3C)CC[C@@H]21 | -3.81 |
| O=C(NC1CC1)C1=CC2(CCN(CC3CC3)CC2)c2ccccc21 | -4.67 |
| CCO[C@H]1CO[C@@]2(CCN(Cc3ccc4c(c3)OCO4)C2)C1 | -9.21 |
| CC(=O)N1CCC2(CC1)C(=O)N(CC1CCN(C)CC1)c1ccccc12 | -8.7 |
| CC(=O)N1[C@H](CN(C)C)C[C@@H]2CN(C(=O)c3ccno3)CC[C@@H]21 | -9.81 |
| CNC(=O)CN1CCCC12CCN(C(=O)c1ccoc1)CC2 | -11.1 |
| O=C1C[C@H]2[C@@H](CCN2C(=O)Cc2cccs2)N1Cc1ccncc1 | 27.8 |

| SMILES | cytotoxicity at 70.5 h [%] |
| --- | --- |
| CCN1CCOCC2(CCCN(C(=O)c3ccccc3F)C2)C1 (stereo not drawn) | 8.58 |
| CCCC(=O)N1C[C@@H]2CCN(c3cnccn3)C[C@@H]2C1 | 8.32 |
| O=C1N(CC2CC2)CCC12CCN(Cc1ccoc1)CC2 | -8.87 |
| Cc1oncc1C(=O)N1CCC2(CC1)CC(N1CCOCC1)C2 | -11.3 |
| CC(=O)N1[C@H](CN(C)C)C[C@@H]2CN(C(=O)Cc3cccs3)CC[C@@H]21 | -21.3 |
| O=C(c1cccnc1)N1CCCC2(COCCN(c3ccccc3)C2)C1 (stereo not drawn) | -16 |
| O=C(CC1CC1)N1C[C@@H]2CCN(c3cccnc3)C[C@@H]2C1 | -11.6 |
| CC[C@@H]1N(Cc2nccs2)CCC[C@]12CCC(=O)N2C | 9.06 |
| CCN1CCOCC2(CCCN(C(=O)c3ccncc3F)C2)C1 (stereo not drawn) | -3.01 |
| O=C(C1CCCCC1)N1C[C@@H]2CCN(c3cnccn3)C[C@@H]2C1 | -6.4 |
| CCN1CCOCC2(CCCN(C(=O)c3conc3C)C2)C1 (stereo not drawn) | -1.18 |
| C[C@@H]1CN(S(C)(=O)=O)C[C@]12CCN(Cc1cccnc1)C2=O | 14.9 |
| COCCN1CCC2(CCN(c3ncccn3)CC2)C1=O | 16.9 |
| Cc1ccc(CN2CCC3(CC2)NC(=O)CC3c2ccccc2)s1 (stereo not drawn) | -6.55 |
| CC(=O)N1CCN(Cc2ccc(C)o2)CC2(CC(=O)N(C)C2)C1 (stereo not drawn) | -4.13 |
| O=C(C1CCC1)N1CCC2(CCCN2CC2CC2)CC1 | -0.744 |
| COc1cccc(CN2CCCC3(CCN(C(=O)N4CCCC4)C3)C2)c1 (stereo not drawn) | -7.71 |
| CC(=O)N1[C@@H](C(=O)NCC2CC2)C[C@@H]2CN(Cc3nccs3)C[C@@H]21 | -9.23 |
| Cc1cccc(CN2CCC3(CC2)NC(=O)CC3c2ccccc2)n1 (stereo not drawn) | -7.81 |
| O=C1CC(c2ccccc2)C2(CCN(Cc3nccs3)CC2)N1 (stereo not drawn) | -9.09 |
| CN1CCOCC12CCN(C(=O)C1CCC1)CC2 | 1.58 |
| Cc1cccc(CN2C(=O)CCC23CCN(C(=O)c2ccco2)CC3)n1 | 0.736 |

| SMILES | cytotoxicity at 70.5 h [%] |
| --- | --- |
| Cc1cccc(CN2C(=O)CCC23CCN(C(=O)N2CCCC2)CC3)n1 | 0.698 |
| CN1CCN(C(=O)CCc2ccccc2)Cc2cccnc21 | 16.1 |
| COCC1CN(C(=O)Cc2ccccn2)Cc2ncnn2C1 (stereo not drawn) | 16.8 |
| CN1[C@@H](C(=O)NCC2CC2)C[C@@H]2CN(Cc3ccsc3)C[C@@H]21 | 11.3 |
| COc1ccc(CN2CC[C@H]3[C@H]2CC(=O)N3Cc2cccc(C)n2)cc1 | -7.27 |
| Cc1noc(C)c1CN1C[C@@H]2C[C@H](C(=O)NCC3CC3)N(C)[C@@H]2C1 | -11.9 |
| Cc1cccc(CN2C(=O)C[C@H]3[C@@H]2CCN3Cc2ccco2)n1 | -11.7 |
| CC[C@@H]1N(Cc2cccnc2)CCC[C@]12CCC(=O)N2C | -12.1 |
| CC(C)NC(=O)CC1COC2(CCN(Cc3cccnc3)CC2)C1 (stereo not drawn) | -12.2 |
| CC[C@@H]1N(Cc2ccncc2)CCC[C@]12CCC(=O)N2C | -20.1 |
| Cc1cccc(CN2C(=O)C[C@H]3[C@@H]2CCN3Cc2ccc(F)cc2)n1 | -2.72 |
| CN(C)CCN1CCCC12CCN(C(=O)c1ccoc1)CC2 | -9.15 |
| Cc1noc(C)c1CN1C[C@H](C)[C@]2(CCN(Cc3cccnc3)C2=O)C1 | -8.9 |
| CN(C)CCN1CCCC12CCN(C(=O)c1ccncc1)CC2 | -7.81 |
| COc1cc(C(=O)N2CC3(CCNCC3)c3cc(Cl)ccc32)ccn1 | -6.87 |
| Cc1cccc(CN2CCCC3(CCC(=O)N3CCN(C)C)CC2)n1 (stereo not drawn) | -3.65 |
| Cc1nc(CN2C[C@H]3C[C@H](C(=O)NCC4CC4)N(C)[C@H]3C2)cs1 | 9.54 |
| COc1ncccc1CN1C[C@H]2C[C@@H](C(=O)NCC3CC3)N(C)[C@H]2C1 | -12.9 |
| C[C@@H]1CN(Cc2cccnc2)C[C@]12CCN(CCN1CCCC1)C2=O | -4.97 |
| COc1cc(O)cc2c1C(=O)CC(c1ccc(O)cc1)O2 (stereo not drawn) | -14 |
